Patent US20210299204A1 (priority 2020, published 2021)

Experiment: Adverse outcome after a Depo-Provera shot for endometrial treatment
Conditions: inventor themself, one shot, 1987; attributed to the preservative in the drug

With `CC(=O)O[C@]1(C(C)=O)CC[C@H]2[C@@H]3C[C@H](C)C4=CC(=O)CC[C@]4(C)[C@H]3CC[C@@]21C` [Depo-Provera] the “adverse result of treatment” value was “retinal atrophy”.
